Laboratory results from paper PMC10999543, “Identification of kinase modulators as host-directed therapeutics against intracellular methicillin-resistant Staphylococcus aureus” (Frontiers in Cellular and Infection Microbiology, 2024).

What was measured:
[1] = tested on: HER2; design: method as in Drewry et al., 2017; conditions: PKIS2, KinomeScan, ref Drewry et al., 2017; cited from earlier work
[2] = tested on: HER4; design: method as in Drewry et al., 2017; conditions: PKIS2, KinomeScan, ref Drewry et al., 2017; cited from earlier work
[3] = tested on: EGFR; design: method as in Drewry et al., 2017; conditions: PKIS2, KinomeScan, ref Drewry et al., 2017; cited from earlier work
[4] = tested on: intracellular MRSA in HeLa cells; assay: Gentamicin protection assay with CFU count in MRSA-infected HeLa cells; type: cell-based, Staphylococcus aureus; conditions: HeLa cells
Method: The cells were resuspended in cell culture medium without antibiotics, seeded with 10,000 cells/well into Costar flat-bottom 96-well plates (Corning, Amsterdam, the Netherlands), and were incubated overnight at 37°C/5% CO2. The next day, the bacteria were centrifuged at ≥1800 g for 15 min and resuspended in cold PBS + 5 mM ethylenediaminetetraacetic acid (EDTA). The number of CFUs present in the bacterial suspension was estimated from the optical density at 600 nm (OD600) by assuming 8x10^8 CFUs to be present in a bacterial suspension with OD600 = 1, based on prior titrations. The bacterial suspension was diluted in cell culture medium without antibiotics and added to the cells. Accuracy of the multiplicity of infection (MOI) was validated by plating serial dilutions of the MRSA inoculums on Difco TS agar plates (BD Biosciences). The calculated mean MOI throughout all experiments was 6.8 ± 4.6 (mean ± SD). Infected cells were centrifuged for 3 min at 150 g and incubated for 1 hour at 37°C/5% CO2. Next, the cells were incubated with fresh cell culture medium supplemented with 30 µg/ml gentamicin sulphate (Lonza BioWhittaker, Basel, Switzerland) for 15 min at 37°C/5% CO2 to kill residual extracellular bacteria. Infected cells were incubated overnight at 37°C/5% CO2 in cell culture medium in the presence of kinase inhibitors and 5 µg/ml gentamicin sulphate-containing medium to prevent the growth of extracellular bacteria. The solvent of the compounds, DMSO, was used at equal % v/v as a negative control. For the screen, each compound was tested in triplicate, on separate cell culture plates, resulting in triplicate values for each kinase inhibitor.
Infected cells were lysed in sterile water + 0.05% UltraPure SDS solution (Invitrogen, ThermoFisher Scientific) to release intracellular bacteria. Bacterial suspensions and lysates of cells infected with MRSA were 5-fold serially diluted and 10-μl drops were plated on square TS agar plates. The plates were left to dry and incubated overnight at 37°C/5% CO2.

[5] = tested on: planktonic MRSA cultures; assay: Bacterial growth assay in cell-free planktonic MRSA cultures (OD600); type: cell-based, Staphylococcus aureus; conditions: Supplementary Figure S5
Method: […] The absorbance was measured using an EnVision plate reader (PerkinElmer). The plates were incubated at 37°C overnight and the absorbance was measured again the next day. Real-time measurement of bioluminescence by the MRSA-lux strain was performed in a white flat-bottom 96-wells plate using a SpectraMax i3x plate reader and an integration time set at 9000 ms.

[6] = tested on: MRSA; conditions: especially against MRSA biofilm formation; ref Liu et al., 2022; cited from earlier work

For CS(=O)(=O)CCNCc1nc(-c2ccc3ncnc(Nc4ccc(OCc5ccccc5)c(Cl)c4)c3c2)cs1 [GW582764], the “% inhibition at 1 µM HER2” value [1] is listed as 100% and the “% inhibition at 1 µM HER4” value [2] is listed as 97.8%.
In the case of CS(=O)(=O)CCNCc1nc(-c2ccc3ncnc(Nc4ccc(OCc5cccc(F)c5)c(Cl)c4)c3c2)cs1 [GW583340], the “% inhibition at 1 µM EGFR” value [3] is given as 99.9%, the “% inhibition at 1 µM HER2” value [1] is given as 99.7% and the “% inhibition at 1 µM HER4” value [2] is given as 99.1%.
In the case of CS(=O)(=O)CCNCc1ccc(-c2ccc3ncnc(Nc4ccc(OCc5cccc(F)c5)c(Cl)c4)c3c2)o1 [lapatinib, reference compound], the “increase in the intracellular bacterial burden” value ([4]; 3 µM) is reported as 80%, the “activity against intracellular MRSA” value ([4]; 10 and 30 µM) is reported as “only modestly active” and the “effect on planktonic MRSA growth (direct antibiotic effect)” value ([5]; up to 100 µM concentration) is reported as “did not observe this direct effect”. The “concentrations resulting in direct antimicrobial effects” value [6] was “above 10 µM”.
In the case of CO[C@H]1C[C@@H]2CC[C@@H](C)[C@@](O)(O2)C(=O)C(=O)N2CCCC[C@H]2C(=O)O[C@H]([C@H](C)C[C@@H]2CC[C@@H](O)[C@H](OC)C2)CC(=O)[C@H](C)/C=C(\C)[C@@H](O)[C@@H](OC)C(=O)[C@H](C)C[C@H](C)/C=C/C=C/C=C/1C [rapamycin, reference compound], the “effect on intracellular MRSA burden” value ([4]; 991 used at 25 μM, rapamycin at 1 μM, Figure 5J) is reported as “able to reduce the intracellular MRSA burden similar to GW296115X” and the “direct antibiotic effects against MRSA” value ([5]; planktonic cultures) is reported as “not the case”.
